In this experiment the test system is T. cruzi-infected H9C2 cardiomyocytes, high-content imaging. Briefly: anti-T. cruzi activity in infected cardiomyocytes – imaging, H9C2 host cardiomyocytes, host toxicity (AID 1159565).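 Note: infected cells incubated 72 h after plating.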
[1] abbreviates: measured here: H9C2 host cell toxicity.
The mark [2] stands for this setting: measured here: amastigotes per cell.

Calls of active or inactive are those of the source. The rule behind the calls is not given here.

Consider `COc1cccc(CN(C)Cc2nc(N)c3c(C)c(C)sc3n2)c1`, for which the IC50 was 16 µM. For the same compound, the IC50 under setting [1] was > 50 µM. In addition, the IC50 under setting [2] is 16 µM.

For the compound `COc1ccc([N+](=O)[O-])cc1NC(=O)c1cc(Cl)ccc1O`, the IC50 was 16 µM. In addition, under setting [1], the IC50 was > 50 µM. The same compound had an IC50 under setting [2] of 7.9 µM.

Turning to `O=C(c1cnn(-c2ccccc2)n1)N1CCCC(n2ccnc2)C1` (centres undefined), the IC50 is 0.079 µM. Besides, the IC50 under setting [1] was > 50 µM. Under setting [2], this compound returned a 50% inhibitory concentration (IC50) of 0.063 µM.

Consider `NC(=O)c1ccsc1NC(=O)c1ccc([N+](=O)[O-])s1`, for which the IC50 is 0.13 µM. For the same compound, the IC50 under setting [1] was > 50 µM. Under setting [2], this compound returned an IC50 of 0.1 µM.

Regarding `CNc1cncc(C2CCCN2C(=O)Cc2coc3cc(C)ccc23)n1` (centres undefined), the IC50 is 0.2 µM. Also, under setting [1], the IC50 was > 50 µM. The IC50 under setting [2] is 0.2 µM.

In the case of `Nc1nonc1-c1nc2cncc(C(=O)N3CC[C@H](N)C3)c2n1CC1CC1`, the IC50 is > 50 µM (inactive). Further, under setting [1], the IC50 is > 50 µM. Under setting [2], this compound had an IC50 of 13 µM.

In the case of `Cc1cc(Br)sc1CNCCCNc1cc(=O)c2ccccc2[nH]1`, the IC50 is 0.79 µM. This compound had an IC50 under setting [1] of 25 µM. The IC50 under setting [2] amounted to 0.5 µM.

`Cc1nc(N2CCC(C(=O)N3CCC(O)(c4cccnc4)CC3)CC2)nc2ccc(C(C)C)cc12`: the IC50 is 0.32 µM. This compound also had an IC50 under setting [1] of 40 µM. The same compound yielded an IC50 under setting [2] of 0.4 µM.

`FC(F)(F)c1cc(C2CCCN(Cc3c[nH]c4ccccc34)C2)nc2ncnn12` (centres undefined): the IC50 is 10 µM. Besides, the IC50 under setting [1] is > 50 µM. In addition, under setting [2], the IC50 came out at 6.3 µM.

On to `CCOc1ccc(N(C)S(=O)(=O)c2ccc3[nH]cc(C(=O)NC4CCCC4)c(=O)c3c2)cc1`, for which the IC50 was > 50 µM (inactive). The IC50 under setting [1] is > 50 µM. Besides, the IC50 under setting [2] is 6.3 µM.

As for `CNC(=O)Oc1ccc(C(=O)NCc2ccccc2)cc1OC(=O)NC`, the IC50 was 40 µM. Besides, the IC50 under setting [1] was > 50 µM. This compound also had an IC50 under setting [2] of 40 µM.

On to `O=C(c1ccc(O)c(Cl)c1)N1CCN(c2cnccn2)CC1`, for which the IC50 is > 50 µM (inactive). Moreover, the IC50 under setting [1] is > 50 µM. The same compound displayed an IC50 under setting [2] of 10 µM.

With `CCOC(=O)c1noc(N)c1-c1ccccc1`, the IC50 was > 50 µM (inactive). Further, under setting [1], the IC50 is > 50 µM. The IC50 under setting [2] is > 50 µM.

As for `N#Cc1cnc(Nc2cccc(CCN3CCOCC3)c2)nc1Nc1ccccc1C(N)=O`, the half-inhibitory concentration (IC50) was 3.2 µM. In addition, the IC50 under setting [1] is 0.013 µM. Besides, the IC50 under setting [2] was found to be 2 µM.

In the case of `O=C(N[C@H](CO)c1ccccc1)c1ccc(-c2c[nH]c3nccc(C(F)(F)F)c23)s1`, the IC50 is 10 µM. The IC50 under setting [1] came out at 13 µM. Further, the IC50 under setting [2] worked out at 10 µM.

For `CC(C(=O)Nc1ccc(Br)cc1)N1CCN(c2ccc([N+](=O)[O-])cc2)CC1` (centres undefined), the IC50 was 2.5 µM. Further, the IC50 under setting [1] is > 50 µM. Moreover, the half-maximal inhibitory concentration (IC50) under setting [2] came out at 3.2 µM.

Regarding `O=C(NCC(c1cccnc1)N1CCc2ccccc2C1)C(=O)Nc1cccc(Cl)c1` (centres undefined), the IC50 is 0.079 µM. This compound came in with an IC50 under setting [1] of 25 µM. Also, the IC50 under setting [2] was 0.063 µM.

With `CCOc1cnn(C)c(=O)c1Nc1ccc(C(=O)NCc2ccc(F)cc2)cc1`, the IC50 was 0.1 µM. Besides, the IC50 under setting [1] is > 50 µM. The IC50 under setting [2] stood at 0.13 µM.

Take `c1ccc(Nc2nc3ccccc3[nH]2)nc1`: the IC50 was 25 µM. The compound also came in with a half-inhibitory concentration (IC50) under setting [1] of 10 µM. Under setting [2], the IC50 is 10 µM.

Take `Nc1nc(-c2ccccn2)nc(-n2nc(-c3ccccc3)cc2N)n1`: the IC50 was 2.5 µM. This compound gave an IC50 under setting [1] of 2 µM. This compound yielded an IC50 under setting [2] of 0.32 µM.

With `CC(C)C[C@H](NC(=O)c1ccc(-c2ccccc2)o1)C(=O)NC1(C#N)CC1`, the IC50 is > 50 µM (inactive). Also, the IC50 under setting [1] is > 50 µM. Besides, the IC50 under setting [2] amounted to 25 µM.

For the compound `Cc1cc(Nc2ccc(C#N)c(Cl)c2C)n[nH]1`, the IC50 is > 50 µM (inactive). The IC50 under setting [1] is > 50 µM. This compound also gave an IC50 under setting [2] of 20 µM.

On to `CC(=O)Nc1ccc(CN2CCC(N3CC(c4ccccc4)(c4ccccc4)OCC3=O)CC2)cc1`, for which the IC50 is 32 µM. Moreover, under setting [1], the half-maximal inhibitory concentration (IC50) was > 50 µM. Under setting [2], this compound gave an IC50 of 20 µM.

Consider `NCc1ccc2c(Cl)cc(Cl)c(O)c2n1`, for which the IC50 is 2 µM. In addition, the IC50 under setting [1] turned out to be 6.3 µM. Also, under setting [2], the IC50 was determined as 1.3 µM.

Turning to `COc1ccc(C(=O)NC2CCN(CCn3c(=O)ccc4ncc(F)cc43)CC2)cc1Cl`, the half-inhibitory concentration (IC50) is 0.63 µM. The IC50 under setting [1] was > 50 µM. Moreover, under setting [2], the IC50 was 0.32 µM.

As for `Cc1nc(-c2ccc3c(c2)OCO3)sc1C(=O)NCc1ccc2c(c1)OCO2`, the IC50 is 0.79 µM. In addition, the concentration for half-maximal inhibition (IC50) under setting [1] is > 50 µM. The compound also had an IC50 under setting [2] of 0.5 µM.

For `O=C1CN(C(=O)c2cccc(Nc3ncc(-c4ccc5c(c4)OCO5)cn3)c2)CCN1`, the IC50 was 0.79 µM. For the same compound, under setting [1], the IC50 was determined as 63 µM. Besides, the IC50 under setting [2] was determined as 0.5 µM.

As for `CC(C)(C)C(Cn1ccnc1)NC(=O)c1ccc2nc(C3CC3)oc2c1` (centres undefined), the IC50 was 0.1 µM. Moreover, the IC50 under setting [1] is > 50 µM. The compound also displayed an IC50 under setting [2] of 0.079 µM.

Regarding `CCN(CC)c1nc(N(C)C)nc2c1CN(Cc1ccccc1)CC2`, the IC50 is 20 µM. Further, the IC50 under setting [1] was > 50 µM. The concentration for half-maximal inhibition (IC50) under setting [2] is 4 µM.

Consider `COCCn1cnc2cc(NC(=O)C3CCCCC3)cc(C(=O)N3CCc4sccc4C3)c21`, for which the IC50 was 32 µM. Moreover, under setting [1], the IC50 is > 50 µM. Moreover, the IC50 under setting [2] turned out to be 20 µM.

`CNS(=O)(=O)c1ccccc1Nc1nc(Nc2ccnn2C)ncc1Cl`: the IC50 is 1 µM. Under setting [1], the IC50 turned out to be 0.16 µM. The IC50 under setting [2] is 0.63 µM.

For the compound `CCOc1ccc(NC(=O)C=Cc2ccc(CC)o2)cc1`, the IC50 was 25 µM. Further, the IC50 under setting [1] was > 50 µM. The IC50 under setting [2] was determined as 16 µM.

Regarding `Cc1cc(C)n(-c2nc(NC(C)C)nc(NC(C)(C)C)n2)n1`, the IC50 was 1.6 µM. Under setting [1], the IC50 was 0.2 µM. Further, the IC50 under setting [2] worked out at 0.5 µM.

Consider `CCOc1ccc(Nc2ccc(S(=O)(=O)N3CCN(C)CC3)cc2[N+](=O)[O-])cc1OCC`, for which the IC50 is > 50 µM (inactive). In addition, the IC50 under setting [1] was > 50 µM. Under setting [2], this compound showed an IC50 of 3.2 µM.

Take `O=c1ccc2ccc(F)c3c2n1C[C@H]3CN1CCC(NCc2cc3ccccc3o2)CC1`: the half-maximal inhibitory concentration (IC50) is 0.2 µM. The compound also showed an IC50 under setting [1] of 32 µM. Further, the IC50 under setting [2] came to 0.13 µM.

Take `O=C(NCC1CCCCN1C(=O)c1cccc2ccccc12)c1ccccc1` (centres undefined): the IC50 was 5 µM. Besides, the 50% inhibitory concentration (IC50) under setting [1] is > 50 µM. The same compound had a half-inhibitory concentration (IC50) under setting [2] of 3.2 µM.

Take `Clc1ccc(Sc2cnccc2N2CCOCC2)cc1`: the IC50 is 0.13 µM. The IC50 under setting [1] was > 50 µM. Moreover, under setting [2], the IC50 stood at 0.1 µM.

With `Cc1ccc(C)c(OC2CCN(C(=O)C(C)n3ccnc3)CC2)c1` (centres undefined), the IC50 was 0.4 µM. Further, under setting [1], the IC50 was > 50 µM. The compound also gave an IC50 under setting [2] of 0.32 µM.

A word on the IC50: it is the concentration that inhibits the measured activity by half.

The values above are taken from PubChem BioAssay AID1159565 (GlaxoSmithKline (GSK), 2015).
